From publication PMC5993640 (European journal of medicinal chemistry, 2018) come the findings set out here.

Values joined by “and” are separate entries in the source; they are usually repeats but may differ in a detail not shown here. Equal values may be shown once. Read-outs that look alike come from different tables or passages of the source.

Data set [1] in a line: Aqueous solubility. It is filed as physicochemical. The settings on record: universal aqueous buffer.
Data set [2] has as its system HIV-1HXB2 WT and Env gp120 mutated pseudoviruses. Kind of data set: microbe, parasite or virus in culture. It is filed as cell-based. The settings on record: Human immunodeficiency virus 1, U87.CD4.CXCR4.
Data set [3] deals with hERG potassium channel (Homo sapiens, UniProt Q12809). Kind of data set: hERG channel inhibition, whole-cell patch clamp in HEK293 cells. It is filed as cell-based. The conditions noted are these: HEK293 cells stably transfected with hERG cDNA.
A short description of data set [4]: Plasma protein binding. The class given is in vitro ADME.
Data set [5] relates to HIV-1 mediated cell-cell fusion. Kind of data set: HIV-1 mediated cell-cell fusion inhibition assay. It is filed as cell-based. The settings on record: HL2/3 effector and TZM-bl target cells.
The nature of data set [6]: Metabolic stability in human liver microsomes. The settings on record: 3 μM.
The test system of data set [7] is VSV-G. The class given is cell-based. The conditions noted are these: U87-CD4-CXCR4 cells.
Data set [8] in a line: Cytotoxicity in U87-CD4-CXCR4 cells. The conditions noted are these: human. The class given is cell-based.
Data set [9] can be described thus: Cytotoxicity in TZM-bl cells. It is filed as cell-based. The settings on record: human.
In data set [10] the test system is HIV-1HXB2. The class given is cell-based.
Data set [11] has as its system HIV-1IIIB. Kind of data set: Multi-cycle infection assay in MT-2 cells.
Data set [12] relates to TZM-bl cells. Kind of data set: Cytotoxicity in TZM-bl cells. It is filed as cell-based. The settings on record: read-out: Toxicity CC50 (TZM-bl).
Data set [13] deals with MT-2 cells. Kind of data set: Cytotoxicity in MT-2 cells. The conditions noted are these: read-out: Toxicity CC50 (MT-2). It is filed as cell-based.
[14] abbreviates: pH 7.4, Solubility Range when prepared at 500 μM, With 5% DMSO, pH7.4 (first line).
The mark [15] stands for this setting: pH 7.4, aqueous solubility, DMSO concentration of 2%.
Setting [16] is: read-out: HIV-1IIIB IC50, MT-2 cells, multi-cycle, mean ± SD, n=3.

Chain of hERG potassium channel (Q12809 whole entry): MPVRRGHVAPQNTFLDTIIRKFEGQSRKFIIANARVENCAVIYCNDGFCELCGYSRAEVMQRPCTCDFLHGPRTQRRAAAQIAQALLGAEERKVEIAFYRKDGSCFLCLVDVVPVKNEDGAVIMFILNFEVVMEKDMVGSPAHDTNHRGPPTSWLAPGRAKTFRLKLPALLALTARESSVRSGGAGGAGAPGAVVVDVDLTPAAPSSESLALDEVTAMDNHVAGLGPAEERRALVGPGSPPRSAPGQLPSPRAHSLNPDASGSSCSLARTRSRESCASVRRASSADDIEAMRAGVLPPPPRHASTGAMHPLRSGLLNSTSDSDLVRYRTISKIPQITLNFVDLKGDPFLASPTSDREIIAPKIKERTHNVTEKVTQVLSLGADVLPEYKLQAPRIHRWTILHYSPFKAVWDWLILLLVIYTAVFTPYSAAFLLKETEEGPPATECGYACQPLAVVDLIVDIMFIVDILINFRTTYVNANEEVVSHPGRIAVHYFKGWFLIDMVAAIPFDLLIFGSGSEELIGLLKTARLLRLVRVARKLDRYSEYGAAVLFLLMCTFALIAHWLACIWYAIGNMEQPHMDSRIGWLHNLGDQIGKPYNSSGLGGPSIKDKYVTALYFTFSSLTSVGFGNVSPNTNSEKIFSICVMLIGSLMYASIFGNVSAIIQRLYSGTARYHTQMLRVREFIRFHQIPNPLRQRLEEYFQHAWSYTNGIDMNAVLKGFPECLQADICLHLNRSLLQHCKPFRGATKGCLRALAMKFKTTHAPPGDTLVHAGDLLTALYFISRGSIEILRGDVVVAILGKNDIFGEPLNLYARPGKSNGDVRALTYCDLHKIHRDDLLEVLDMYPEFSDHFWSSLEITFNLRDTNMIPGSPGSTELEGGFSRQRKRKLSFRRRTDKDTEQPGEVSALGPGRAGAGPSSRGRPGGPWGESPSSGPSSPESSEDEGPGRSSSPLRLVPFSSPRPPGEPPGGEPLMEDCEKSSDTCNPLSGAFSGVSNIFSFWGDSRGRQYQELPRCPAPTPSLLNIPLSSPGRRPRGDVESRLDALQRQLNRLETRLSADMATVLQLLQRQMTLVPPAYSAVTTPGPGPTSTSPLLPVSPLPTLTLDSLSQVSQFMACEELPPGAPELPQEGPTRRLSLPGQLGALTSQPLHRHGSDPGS

Take `COc1cnc(-n2cnc(C)n2)c2[nH]cc(C(=O)C(=O)N3CCN(C(=O)c4ccccc4)CC3)c12` [BMS-626529, reference compound]: the solubility at 90 min in data set [1] (setting [14]) is 100 µM to 500 µM and 47.3 µg/mL to 237 µg/mL. Further, the half-maximal inhibitory concentration (IC50) in data set [2] is approximately 0.008 µM.
For `COc1cc(N)c(Cl)cc1C(=O)NC1CCN(CCCOc2ccc(F)cc2)CC1OC` (centres unmarked) [Cisapride], the inhibition at 0.09 µM in data set [3] was 85.2 ± 2.3%.
In the case of `NCC(NC(=O)c1ccc(-c2cc(F)c(Cl)c(F)c2)[nH]1)c1nc(CO)cs1` (centres unmarked) [Compound 39, N-(2-Amino-1-(4-(hydroxymethyl)thiazol-2-yl)ethyl)-5-(4-chloro-3,5-difluorophenyl)-1H-pyrrole-2-carboxamide], the “bound to proteins in human plasma” value in data set [4] is listed as more than 99%. Moreover, the solubility at 90 min in [1] (setting [14]) was approximately 206 µg/mL; in data set [1] (setting [15]), 100 to 500 µM. Besides, the “IC50 HIV-1 mediated cell-cell fusion” value in data set [5] is “active at slightly higher concentration than NBD-556 and 55”. In addition, the “parent compound remaining at 120 min (% of 0 min)” value in [6] is 88.5 to 90.4%. Also, in data set [7], the “Control VSV-G IC50” value is “poorly active”. For the same compound, the CC50 at 3 days in [8] turned out to be 39.3 ± 2.3 µM.
Take `NC[C@@H](NC(=O)c1ccc(-c2ccc(C(F)(F)F)cc2)[nH]1)c1ncc(CO)s1` [Compound 48, N-(2-Amino-1-(5-(hydroxymethyl)thiazol-2-yl)ethyl)-5-(4-(trifluoromethyl)phenyl)-1H-pyrrole-2-carboxamide]: the “IC50 HIV-1 mediated cell-cell fusion” value in data set [5] was “active at slightly higher concentration than NBD-556 and 55”. The midpoint of cytotoxicity in [9], the CC50 at 72 h, lay at 42.4 ± 1 µM. Besides, the “Control VSV-G IC50” value in data set [7] is reported as “poorly active”. Besides, the 50% cytotoxic concentration (CC50) at 3 days in data set [8] amounted to 46.4 ± 4.7 µM.
In the case of `NC[C@H](NC(=O)c1ccc(-c2ccc(C(F)(F)F)cc2)[nH]1)c1nc(CO)cs1` [Compound 49, N-(2-Amino-1-(4-(hydroxymethyl)thiazol-2-yl)ethyl)-5-(4-(trifluoromethyl)phenyl)-1H-pyrrole-2-carboxamide], in data set [10] (HIV-1HXB2 in TZM-bl cells, 39 vs NBD-14107, 49 vs 47, 55 vs 53), the “fold enhancement in antiviral potency (IC50) after CH2OH switch C5 to C4” value was ~ 3.4 fold.
Turning to `CNC[C@H](NC(=O)c1ccc(-c2ccc(C(F)(F)F)cc2)[nH]1)c1nc(CO)cs1` [Compound 51, N-(1-(4-(Hydroxymethyl)thiazol-2-yl)-2-(methylamino)ethyl)-5-(4-(trifluoromethyl)phenyl)-1H-pyrrole-2-carboxamide], the IC50 in data set [11] (Human immunodeficiency virus 1, MT2, read-out: HIV-1IIIB IC50) came out at 0.1 µM.
With `NCC(NC(=O)c1ccc(-c2ccc(C(F)(F)F)c(F)c2)[nH]1)c1nc(CO)cs1` (centres unmarked) [Compound 55, N-(2-Amino-1-(4-(hydroxymethyl)thiazol-2-yl)ethyl)-5-(3-fluoro-4-(trifluoromethyl)-phenyl)-1H-pyrrole-2-carboxamide], the “bound to proteins in human plasma” value in [4] is listed as more than 99%. Also, the solubility at 90 min was 100 µM to 500 µM and 42.4 µg/mL to 214 µg/mL in data set [1] (setting [14]); 100 to 500 µM in data set [1] (setting [15]). Also, in [6], the “parent compound remaining at 120 min (% of 0 min)” value is reported as 88.5 to 90.4%. For the same compound, in [7], the “Control VSV-G IC50” value is “poorly active”.
Regarding “N-(2-Amino-1-(5-(hydroxymethyl)oxazol-2-yl)ethyl)-5-(4-chloro-3,5-difluorophenyl)-1H-pyrrole-2-carboxamide [Compound 66]”, the CC50 in [12] worked out at 30.9 ± 1.7 µM; in data set [13], 44.7 ± 1.5 µM. Further, the IC50 in data set [11] (setting [16]) stood at 0.9 ± 0.1 µM; in [10] (read-out: HIV-1HXB2 IC50, TZM-bl cells, single-cycle, mean ± SD, n=3), 0.76 ± 0.1 µM.
As for “N-(2-Amino-1-(5-(hydroxymethyl)oxazol-2-yl)ethyl)-5-(4-chloro-3,5-difluorophenyl)-1H-pyrrole-2-carboxamide [Compound 67]”, the half-maximal cytotoxic concentration (CC50) came out at 27.7 ± 0.5 µM in data set [12] and 26.5 ± 2 µM in data set [13]. Besides, in data set [11] (setting [16]), the 50% inhibitory concentration (IC50) amounted to 0.8 ± 0.1 µM.
“N-(2-Amino-1-(5-(hydroxymethyl)thiazol-2-yl)ethyl)-5-(3,5-difluoro-4-(trifluoromethyl)-phenyl)-1H-pyrrole-2-carboxamide [Compound 57]”: the half-maximal cytotoxic concentration (CC50) in data set [12] amounted to 23 ± 0.6 µM; in data set [13], 14.3 ± 0.6 µM.
As to “N-(2-Amino-1-(5-(hydroxymethyl)thiazol-2-yl)ethyl)-5-(3,5-difluoro-4-(trifluoromethyl)-phenyl)-1H-pyrrole-2-carboxamide [Compound 58]”, the CC50 in data set [12] was 23.5 ± 0.5 µM; in [13], 15.5 ± 0.45 µM.
